Laboratory results reported in patent US20190359645A1, “2'3'-CYCLIC DINUCLEOTIDES COMPRISING CARBOCYCLIC NUCLEOTIDE” (Institute of Organic Chemistry and Biochemistry ASCR, V.V.I., priority 2018, published 2019).

Molecular target: WT STING (Homo sapiens, UniProt Q86WV6, H232R)
Assay: 293T wt STING reporter assay
Format: cell-based
Set-up: host or cells: 293T (ATCC CRL-3216), stably transfected; also carries the 4xISRE firefly luciferase reporter
Details: 293T wtSTING-FL cells, no digitonin, 7 h incubation, ISRE firefly luciferase reporter
Description: Two complementary oligonucleotides of the sequence […] […] […] […] (SEQ ID NO: 1) and […] […] (SEQ ID NO:2) containing four interferon-sensitive response elements (ISRE) were synthesized by Sigma Aldrich (Czech Republic, Prague). The oligonucleotides were mixed in equal molar amounts, hybridized, and cleaved by restriction endonucleases HindIII (cat. #. R^0104S, NEB, Ipswich, USA) and BglII (cat. # R^0144S, NEB, Ipswich, USA). Ultimately, they were ligated into plasmid pGL4.27 (cat. # E6651, Promega, Madison, USA) linearized with the same enzymes. As a result, the sequence with four ISRE sites was placed upstream of the minimum promoter of firefly luciferase reporter gene.
293T cells (cat. # CRL-3216, ATCC, Manassas, USA) were seeded a day before transfection at density 125,000 cells per cm^2 onto poly-D-lysine (cat. # P6407, Sigma Aldrich, Czech Republic) coated six well plates in antibiotic free DMEM with high glucose (cat. # D5796, Sigma Aldrich, Czech Republic) supplemented with 10% heat inactivated FBS (cat. # S1520, Biowest, Riverside, USA). […]

Sequence of WT STING (Q86WV6 whole entry H232R): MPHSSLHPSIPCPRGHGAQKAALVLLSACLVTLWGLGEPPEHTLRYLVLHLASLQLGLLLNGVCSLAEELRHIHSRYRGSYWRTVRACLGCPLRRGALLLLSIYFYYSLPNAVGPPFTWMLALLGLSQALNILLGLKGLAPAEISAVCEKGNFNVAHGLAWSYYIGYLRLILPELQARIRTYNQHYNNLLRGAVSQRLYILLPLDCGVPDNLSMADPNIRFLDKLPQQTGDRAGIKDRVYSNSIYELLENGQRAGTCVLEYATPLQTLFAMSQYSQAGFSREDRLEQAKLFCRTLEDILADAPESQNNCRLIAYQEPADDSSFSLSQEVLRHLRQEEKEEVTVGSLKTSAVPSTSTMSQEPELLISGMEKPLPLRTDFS

Row | EC50 [µM] | SMILES
1 | 0.5 | Nc1ncnc2c1ncn2[C@@H]1O[C@@H]2COP(=O)(S)O[C@@H]3[C@H](F)[C@@H](COP(=O)(S)O[C@H]2[C@H]1F)C[C@H]3n1cnc2c(=O)[nH]cnc21 (single isomer, unassigned) [Compound 128d]
2 | 11 | Nc1ncnc2c1ncn2[C@@H]1O[C@@H]2COP(=O)(S)O[C@@H]3[C@H](F)[C@@H](COP(=O)(S)O[C@H]2[C@H]1F)C[C@H]3n1cnc2c(=O)[nH]cnc21 (single isomer, unassigned) [Compound 128a]
